According to the NIST ThermoML archive (doi:10.1016/j.jct.2004.08.003):
Numbers after ± are expanded uncertainties.

Experiments:
[1] = 101.33 kPa, Liquid
[2] = relative permittivity at various frequencies (dimensionless); conditions: 101.3 kPa, Liquid, Frequency=1 MHz, HP4284A LCR Meter with HP16452A measuring cell

mass density ([1]; 288.15 K) | mass density ([1]; 293.15 K) | mass density ([1]; 298.15 K) | mass density ([1]; 303.15 K) | mass density ([1]; 308.15 K) | mass density ([1]; 318.15 K) | mass density ([1]; 328.15 K) | relative permittivity ([2]; 288.15 K) | relative permittivity ([2]; 293.15 K) | relative permittivity ([2]; 298.15 K) | relative permittivity ([2]; 303.15 K) | relative permittivity ([2]; 308.15 K) | relative permittivity ([2]; 318.15 K) | relative permittivity ([2]; 328.15 K) | SMILES
752.44 ± 0.64 kg/m3 | 748.8 ± 0.65 kg/m3 | 745.19 ± 0.65 kg/m3 | 741.57 ± 0.66 kg/m3 | 737.93 ± 0.66 kg/m3 | 730.7 ± 0.67 kg/m3 | 723.32 ± 0.68 kg/m3 | 2.04 ± 0.04 | 2.03 ± 0.04 | 2.02 ± 0.04 | 2.02 ± 0.04 | 2.01 ± 0.04 | 2 ± 0.04 | 1.99 ± 0.04 | CCCCCCCCCCCC [dodecane]
721.77 ± 0.6 kg/m3 | 717.76 ± 0.6 kg/m3 | 713.77 ± 0.61 kg/m3 | 709.89 ± 0.61 kg/m3 | 706.2 ± 0.62 kg/m3 | 698.14 ± 0.63 kg/m3 | 690.14 ± 0.64 kg/m3 | 1.99 ± 0.04 | 1.99 ± 0.04 | 1.98 ± 0.04 | 1.97 ± 0.04 | 1.96 ± 0.04 | 1.95 ± 0.04 | 1.94 ± 0.04 | CCCCCCCCC [nonane]
989.16 ± 0.76 kg/m3 | 984.16 ± 0.78 kg/m3 | 979.61 ± 0.8 kg/m3 | 974.85 ± 0.82 kg/m3 | 970.85 ± 0.84 kg/m3 | 960.67 ± 0.89 kg/m3 | 951.06 ± 0.94 kg/m3 | 7.88 ± 0.16 | 7.73 ± 0.15 | 7.58 ± 0.15 | 7.46 ± 0.15 | 7.33 ± 0.15 | 7.09 ± 0.14 | 6.88 ± 0.14 | COCCOCCOCCOC [2,5,8,11-tetraoxadodecane]
